Experimental data taken from US20040038855A1 (priority 1999, published 2004).
Like-named read-outs stand apart in the source and are kept apart here.

What was measured:
[1] = biological target: T1, human Alpha-1a Adrenergic receptor (Homo sapiens, UniProt P35348); test: Binding affinity at the human alpha-1A adrenergic receptor
T1 construct: expressed in transfected cells
T1 sequence (P35348 1-466): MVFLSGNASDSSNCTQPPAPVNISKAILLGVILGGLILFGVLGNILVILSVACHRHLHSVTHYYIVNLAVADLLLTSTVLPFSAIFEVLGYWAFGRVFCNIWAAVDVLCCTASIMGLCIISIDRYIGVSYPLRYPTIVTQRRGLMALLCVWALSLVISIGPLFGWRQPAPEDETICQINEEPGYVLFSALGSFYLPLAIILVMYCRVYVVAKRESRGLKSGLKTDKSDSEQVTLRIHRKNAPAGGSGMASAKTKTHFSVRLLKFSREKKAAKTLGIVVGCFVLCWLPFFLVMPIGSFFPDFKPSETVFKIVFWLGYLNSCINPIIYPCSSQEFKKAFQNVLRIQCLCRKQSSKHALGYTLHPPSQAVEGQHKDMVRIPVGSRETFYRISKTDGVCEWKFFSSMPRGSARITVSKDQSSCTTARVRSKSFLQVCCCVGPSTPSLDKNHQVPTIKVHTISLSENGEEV
In short: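 Receptor binding read-out throughout; membranes expressing human D1 or D2 receptor were used for those two targets.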

[2] = biological target: T2, human Histamine H1 receptor (Homo sapiens, UniProt P35367); test: Binding affinity at the human histamine H1 receptor
T2 construct: expressed in transfected cells
Description: Other receptors: Cell membranes expressing human dopamine D1, D2, D4 and rat D3 receptors were purchased through BioSignal, Inc. (Montreal, Canada). Binding assays using the histamine H1 receptor; dopamine receptors; and α1A, α1B, and α2 adrenergic receptors may be carried out according to the procedures described in U.S. Pat. No. 5,780,485, the disclosure of which is hereby incorporated by reference in its entirety into this application. Binding assays using the dopamine D5 receptor may be carried out according to the procedures described in U.S. Pat. No. 5,882,855, the disclosure of which is hereby incorporated by reference in its entirety into this application. Binding assays for the human α1D adrenergic receptor may be carried out according to the procedures described in U.S. Pat. No. 6,156,518, the disclosure of which is hereby incorporated by reference in its entirety into this application.

[3] = biological target: T3, human Dopamine D2 receptor (Homo sapiens, UniProt P14416); test: Binding affinity at the human dopamine D2 receptor; details: Table 3c; read-out: hD2 Ki
T3 construct: purchased BioSignal, Inc. (Montreal, Canada)
In short: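 Cell membranes carrying the recombinant human dopamine D1 or D2 receptor served as the binding source. The adrenergic α2A and dopamine D5 measurements used receptor binding protocols.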

rat MCH1 receptor = biological target: T4, rat MCH1 receptor (Rattus norvegicus, UniProt P97639); test: Binding affinity (Ki) at the rat MCH1 receptor
T4 construct: expressed in transfected cells

[4] = Table 3c, read-out: hAlpha-1a Ki
[5] = Examples 38-141, read-out: Ki (nM) rMCH1

T2 sequence (P35367 whole entry): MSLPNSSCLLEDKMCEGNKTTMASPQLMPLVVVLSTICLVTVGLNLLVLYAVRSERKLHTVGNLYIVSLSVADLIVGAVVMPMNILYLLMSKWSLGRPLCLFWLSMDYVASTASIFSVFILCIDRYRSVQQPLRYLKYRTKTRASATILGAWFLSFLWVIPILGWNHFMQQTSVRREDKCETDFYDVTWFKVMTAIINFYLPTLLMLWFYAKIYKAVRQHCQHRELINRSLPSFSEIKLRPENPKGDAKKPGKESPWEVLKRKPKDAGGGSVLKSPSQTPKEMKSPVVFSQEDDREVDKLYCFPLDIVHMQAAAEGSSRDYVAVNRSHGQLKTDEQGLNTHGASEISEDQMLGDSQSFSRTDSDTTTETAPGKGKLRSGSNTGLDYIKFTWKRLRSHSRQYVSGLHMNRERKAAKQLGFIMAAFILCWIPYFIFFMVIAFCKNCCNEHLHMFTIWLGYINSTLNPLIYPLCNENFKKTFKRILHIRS
T4 sequence (P97639 whole entry): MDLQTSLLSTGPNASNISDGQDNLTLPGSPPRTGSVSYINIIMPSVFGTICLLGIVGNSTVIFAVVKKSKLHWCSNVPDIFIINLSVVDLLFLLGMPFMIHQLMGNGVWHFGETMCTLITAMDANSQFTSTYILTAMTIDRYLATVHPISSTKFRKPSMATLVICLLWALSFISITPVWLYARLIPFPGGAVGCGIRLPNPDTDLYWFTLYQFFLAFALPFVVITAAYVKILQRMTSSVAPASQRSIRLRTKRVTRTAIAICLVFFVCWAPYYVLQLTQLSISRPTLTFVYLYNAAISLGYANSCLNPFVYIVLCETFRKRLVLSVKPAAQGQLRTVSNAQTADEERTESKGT
T3 sequence (P14416 whole entry): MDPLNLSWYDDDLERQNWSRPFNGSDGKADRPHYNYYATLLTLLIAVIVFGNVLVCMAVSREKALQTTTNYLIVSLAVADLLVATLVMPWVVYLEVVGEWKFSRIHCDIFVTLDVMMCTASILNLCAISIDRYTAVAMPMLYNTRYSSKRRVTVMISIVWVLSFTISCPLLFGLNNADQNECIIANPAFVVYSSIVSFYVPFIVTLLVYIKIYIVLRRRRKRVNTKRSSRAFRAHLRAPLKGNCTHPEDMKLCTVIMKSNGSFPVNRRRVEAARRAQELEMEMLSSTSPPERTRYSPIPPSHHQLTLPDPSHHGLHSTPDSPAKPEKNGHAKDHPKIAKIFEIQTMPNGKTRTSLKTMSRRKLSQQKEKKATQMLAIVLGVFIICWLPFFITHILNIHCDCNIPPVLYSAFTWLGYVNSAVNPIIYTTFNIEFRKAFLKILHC

| Structure (SMILES) | Ki [1, 4] | Ki ([2]; Table 3c, read-out: hH1 Ki) | Ki [3] | Ki (rat MCH1 receptor; [5]) | Ki (rat MCH1 receptor; Table 3c, read-out: rMCH1 Ki) | Ki [1] | Ki [2] | Ki (rat MCH1 receptor) | Ki (rat MCH1 receptor; read-out: rMCH1 Ki, Table 3c) |
| --- | --- | --- | --- | --- | --- | --- | --- | --- | --- |
| CC(C)C(=O)Nc1cccc(C2CCN(CC[C@H](Oc3ccc(C(F)(F)F)cc3)c3ccccc3)CC2)c1 [Example 109] | 221 nM | 1320 nM | 191 nM | 7.1 nM | 7.1 nM | – | – | – | – |
| CC(C)C(=O)Nc1cccc(C2CCN(CC[C@@H](Oc3cc(F)ccc3F)c3ccccc3)CC2)c1 [Example 110] | 187 nM | 283 nM | 83 nM | 4.9 nM | 4.9 nM | – | – | – | – |
| CC(C)C(=O)Nc1cccc(C2CCN(CC[C@@H](Oc3ccc(Cl)c(Cl)c3)c3ccccc3)CC2)c1 [Example 111] | 125 nM | 1100 nM | 162 nM | 5 nM | 5 nM | – | – | – | – |
| CC(C)C(=O)Nc1cccc(C2CCN(CC[C@@H](Oc3ccccc3)c3ccccc3)CC2)c1 [Example 112] | – | – | 435 nM | – | – | 55 nM | 32.5 nM | 22.3 nM | 22.3 nM |
| CC(C)C(=O)Nc1cccc(C2CCN(CC[C@@H](O)c3ccccc3)CC2)c1 [Example 113] | 3210 nM | 48700 nM | 42000 nM | 16.6 nM | 16.6 nM | – | – | – | – |
| CC(C)C(=O)Nc1cccc(C2CCN(CC[C@H](Oc3ccc(C#N)cc3)c3ccccc3)CC2)c1 [Example 114, N-(3-{1-[(3S)-3-(4-cyanophenoxy)-3-phenylpropyl]-4-piperidinyl}phenyl)-2-methylpropanamide] | 233 nM | 590 nM | 390 nM | 2.01 nM | 20.1 nM | – | – | – | – |
| COCC1=C(C(=O)OC)C(c2ccc(F)c(F)c2)N(C(=O)NCCCN2CCC(c3cc(F)ccc3OC)CC2)C(=O)N1 (stereo not drawn) [Example 115] | 49.1 nM | 46.9 nM | 262 nM | 12.9 nM | 12.9 nM | – | – | – | – |
| CC(C)C(=O)Nc1cccc(C2CCN(CC[C@H](Oc3ccc(Br)cc3)c3ccccc3)CC2)c1 [Example 116] | 22.3 nM | 546 nM | 52 nM | 0.923 nM | 0.923 nM | – | – | – | – |
| COc1cccc(O[C@@H](CCN2CCC(c3cccc(NC(=O)C(C)C)c3)CC2)c2ccccc2)c1 [Example 117] | 310 nM | 969 nM | 281 nM | 13.6 nM | 13.6 nM | – | – | – | – |
| COc1cc(C#N)ccc1O[C@@H](CCN1CCC(c2cccc(NC(=O)C(C)C)c2)CC1)c1ccccc1 [Example 118] | 719 nM | 25300 nM | 319 nM | 12.8 nM | 12.8 nM | – | – | – | – |
| COc1ccc(C(C)=O)cc1O[C@@H](CCN1CCC(c2cccc(NC(=O)C(C)C)c2)CC1)c1ccccc1 [Example 119] | 1060 nM | 25300 nM | 766 nM | 22.4 nM | 22.4 nM | – | – | – | – |
| CC(=O)c1ccccc1O[C@H](CCN1CCC(c2cccc(NC(=O)C(C)C)c2)CC1)c1ccccc1 [Example 120] | 1140 nM | 6990 nM | 313 nM | 14.8 nM | 14.8 nM | – | – | – | – |
| CC(C)C(=O)Nc1cccc(C2CCN(CC[C@@H](Oc3cc(C(F)(F)F)ccc3F)c3ccccc3)CC2)c1 [Example 121] | 1720 nM | 9390 nM | 331 nM | 17 nM | 17 nM | – | – | – | – |
| CC(C)C(=O)Nc1cccc(C2CCN(CC[C@H](Oc3cc(C(F)(F)F)ccc3F)c3ccccc3)CC2)c1 [Example 122] | 944 nM | 3470 nM | 132 nM | 3.3 nM | 3.3 nM | – | – | – | – |
| CC(C)C(=O)Nc1cccc(C2CCN(CC[C@H](Oc3cc(F)ccc3F)c3ccccc3)CC2)c1 [Example 123] | 511 nM | 2150 nM | 133 nM | 5.9 nM | 5.9 nM | – | – | – | – |
| CC(C)C(=O)Nc1cccc(C2CCN(CC[C@@H](Oc3cccc(Cl)c3)c3ccccc3)CC2)c1 [Example 124] | 204 nM | 329 nM | 66 nM | 9.3 nM | 9.3 nM | – | – | – | – |
| CC(C)C(=O)Nc1cccc(C2CCN(CC[C@H](OC(=O)c3cccc4ccccc34)c3ccccc3)CC2)c1 [Example 125] | 232 nM | > 50000 nM | 46.6 nM | 32.5 nM | 32.5 nM | – | – | – | – |
| CC(=O)c1ccccc1O[C@@H](CCN1CCC(c2cccc(NC(=O)C(C)C)c2)CC1)c1ccccc1 [Example 126] | 1520 nM | 8000 nM | 1050 nM | 50 nM | 50 nM | – | – | – | – |
| CC(C)C(=O)Nc1cccc(C2CCN(CC[C@H](Oc3ccccc3F)c3ccccc3)CC2)c1 [Example 127] | 226 nM | 1710 nM | 119 nM | 6.6 nM | 6.6 nM | – | – | – | – |
| CC(=O)Nc1cccc(C2CCN(CCCNC(=O)N3C(=O)OC[C@@H]3c3cc(F)cc(F)c3)CC2)c1 [Example 128] | 645 nM | 33100 nM | 41500 nM | 31.4 nM | 31.4 nM | – | – | – | – |
| CC(=O)Nc1cccc(C2CCN(CCCNC(=O)N3C(=O)OC[C@@H]3c3cc(F)c(F)c(F)c3)CC2)c1 [Example 129] | 381 nM | 6520 nM | 41500 nM | 22.3 nM | 22.3 nM | – | – | – | – |
| CC(=O)Nc1cccc(C2CCN(CCCNC(=O)N3C(=O)OC(C)(C)C3c3ccc(F)c(F)c3)CC2)c1 (stereo not drawn) [Example 130] | 333 nM | 1860 nM | 39500 nM | 48.6 nM | 48.6 nM | – | – | – | – |
| CC(=O)Nc1cccc(C2CCN(CCCNC(=O)N3C(=O)O[C@H](C)C3c3ccc(F)c(F)c3)CC2)c1 (stereo partly drawn) [Example 131] | 2470 nM | 2840 nM | 19000 nM | 11.8 nM | 11.8 nM | – | – | – | – |
| CC(=O)Nc1cccc(C2CCN(CCCNC(=O)N3C(=O)OCC3Cc3ccc(F)cc3)CC2)c1 (stereo not drawn) [Example 132] | 11000 nM | 39700 nM | 41500 nM | 44.6 nM | 44.6 nM | – | – | – | – |
| CC(C)C(=O)Nc1cccc(C2CCN(CC[C@@H](Oc3ccccc3[N+](=O)[O-])c3ccccc3)CC2)c1 [Example 133] | 167 nM | 4180 nM | 447 nM | 25.7 nM | 25.7 nM | – | – | – | – |
| CC(C)C(=O)Nc1cccc(C2CCN(CC[C@@H](Oc3cccc([N+](=O)[O-])c3)c3ccccc3)CC2)c1 [Example 135] | 722 nM | 507 nM | 244 nM | 19.4 nM | 19.4 nM | – | – | – | – |
| CCOc1ccccc1O[C@@H](CCN1CCC(c2cccc(NC(=O)C(C)C)c2)CC1)c1ccccc1 [Example 136] | 620 nM | 9790 nM | 833 nM | 14.3 nM | 14.3 nM | – | – | – | – |
